# Test results from PubChem BioAssay (NCI).
#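 Tested at 5 concentrations; 48 h exposure; 96-well plates; endpoints linearly interpolated, else capped at highest concentration. Abbreviation: GI50, concentration required for 50% inhibition of growth. TGI marks complete inhibition of growth.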
# Columns and labels:
# Assay in all cases: NCI tumour cell line growth inhibition, 48 h
# PC-3 prostate = tested on: PC-3 prostate
# SF-295 CNS = tested on: SF-295 CNS
# A549 NSCLC = tested on: A549 NSCLC
# SNB-19 CNS = tested on: SNB-19 CNS
# DU-145 prostate = tested on: DU-145 prostate
# 786-0 renal = tested on: 786-0 renal
# SK-MEL-2 melanoma = tested on: SK-MEL-2 melanoma
# HOP-62 NSCLC = tested on: HOP-62 NSCLC
# BT-549 breast = tested on: BT-549 breast
# HT29 colon = tested on: HT29 colon
# UACC-62 melanoma = tested on: UACC-62 melanoma
# CAKI-1 renal = tested on: CAKI-1 renal
# SN12C renal = tested on: SN12C renal
# A498 renal = tested on: A498 renal
# COLO 205 colon = tested on: COLO 205 colon
# NCI-H522 lung = tested on: NCI-H522 lung
# KM12 colon = tested on: KM12 colon
# HS 578T breast = tested on: HS 578T breast
# RPMI-8226 leukemia = tested on: RPMI-8226 leukemia
# HOP-92 NSCLC = tested on: HOP-92 NSCLC
# T-47D breast = tested on: T-47D breast
# ACHN renal = tested on: ACHN renal
# SNB-75 CNS = tested on: SNB-75 CNS
# LOX IMVI melanoma = tested on: LOX IMVI melanoma
# MALME-3M melanoma = tested on: MALME-3M melanoma
# SK-MEL-5 melanoma = tested on: SK-MEL-5 melanoma
# HCT-15 colon = tested on: HCT-15 colon
# CCRF-CEM leukemia = tested on: CCRF-CEM leukemia
# UO-31 renal = tested on: UO-31 renal
# HCT-116 colon = tested on: HCT-116 colon
# OVCAR-3 ovarian = tested on: OVCAR-3 ovarian
# SW-620 colon = tested on: SW-620 colon
# MCF7 breast = tested on: MCF7 breast
# EKVX NSCLC = tested on: EKVX NSCLC
# SF-268 CNS = tested on: SF-268 CNS
# MDA-MB-468 breast = tested on: MDA-MB-468 breast
# RXF 393 renal = tested on: RXF 393 renal
# HCC-2998 colon = tested on: HCC-2998 colon
# HL-60(TB) leukemia = tested on: HL-60(TB) leukemia
# NCI-H226 lung = tested on: NCI-H226 lung
# OVCAR-5 ovarian = tested on: OVCAR-5 ovarian
# SK-MEL-28 melanoma = tested on: SK-MEL-28 melanoma
# SK-OV-3 ovarian = tested on: SK-OV-3 ovarian
# NCI-H460 lung = tested on: NCI-H460 lung
# K-562 leukemia = tested on: K-562 leukemia
# NCI-H23 lung = tested on: NCI-H23 lung
# OVCAR-4 ovarian = tested on: OVCAR-4 ovarian
# MOLT-4 leukemia = tested on: MOLT-4 leukemia
# U251 CNS = tested on: U251 CNS
# OVCAR-8 ovarian = tested on: OVCAR-8 ovarian
# SF-539 CNS = tested on: SF-539 CNS
# MDA-MB-435 = tested on: MDA-MB-435
# NCI/ADR-RES ovarian = tested on: NCI/ADR-RES ovarian
# M14 melanoma = tested on: M14 melanoma
# UACC-257 melanoma = tested on: UACC-257 melanoma
# TK-10 renal = tested on: TK-10 renal
# MDA-MB-231 breast = tested on: MDA-MB-231 breast
# IGROV1 ovarian = tested on: IGROV1 ovarian
smiles,measurement,setting,value
COC1=C[C@]23CCC(=O)N2CCc2cc4c(cc2[C@@H]3[C@@H]1OC(=O)[C@H](C)O)OCO4,GI50,PC-3 prostate,6.71 µM
same,TGI,PC-3 prostate,44.6 µM
same,GI50,SF-295 CNS,9.24 µM
same,TGI,SF-295 CNS,36.3 µM
same,GI50,A549 NSCLC,7.13 µM
same,TGI,A549 NSCLC,50.6 µM
same,GI50,SNB-19 CNS,4.85 µM
same,TGI,SNB-19 CNS,31.1 µM
same,GI50,DU-145 prostate,12.1 µM
same,TGI,DU-145 prostate,> 52 µM
same,GI50,786-0 renal,11 µM
same,TGI,786-0 renal,42.9 µM
same,GI50,SK-MEL-2 melanoma,12.6 µM
same,TGI,SK-MEL-2 melanoma,> 52 µM
same,GI50,HOP-62 NSCLC,10.2 µM
same,TGI,HOP-62 NSCLC,> 52 µM
same,GI50,BT-549 breast,10.5 µM
same,TGI,BT-549 breast,32.8 µM
same,GI50,HT29 colon,4.41 µM
same,TGI,HT29 colon,> 52 µM
same,GI50,UACC-62 melanoma,9.25 µM
same,TGI,UACC-62 melanoma,> 52 µM
same,GI50,CAKI-1 renal,14.1 µM
same,TGI,CAKI-1 renal,> 52 µM
same,GI50,SN12C renal,14.5 µM
same,TGI,SN12C renal,> 52 µM
same,GI50,A498 renal,6.02 µM
same,TGI,A498 renal,32.1 µM
same,GI50,COLO 205 colon,7.67 µM
same,TGI,COLO 205 colon,31.5 µM
same,GI50,NCI-H522 lung,3.89 µM
same,TGI,NCI-H522 lung,17.7 µM
same,GI50,KM12 colon,10.4 µM
same,TGI,KM12 colon,> 52 µM
same,GI50,HS 578T breast,8.04 µM
same,TGI,HS 578T breast,35.6 µM
same,GI50,RPMI-8226 leukemia,3.23 µM
same,TGI,RPMI-8226 leukemia,21 µM
same,GI50,HOP-92 NSCLC,6.12 µM
same,TGI,HOP-92 NSCLC,33.4 µM
same,GI50,T-47D breast,6.98 µM
same,TGI,T-47D breast,47.1 µM
same,GI50,ACHN renal,3.65 µM
same,TGI,ACHN renal,30.4 µM
same,GI50,SNB-75 CNS,6.59 µM
same,TGI,SNB-75 CNS,30.3 µM
same,GI50,LOX IMVI melanoma,2.31 µM
same,TGI,LOX IMVI melanoma,13.3 µM
same,GI50,MALME-3M melanoma,2.62 µM
same,TGI,MALME-3M melanoma,16.2 µM
same,GI50,SK-MEL-5 melanoma,3.7 µM
same,TGI,SK-MEL-5 melanoma,12.4 µM
same,GI50,HCT-15 colon,5.08 µM
same,TGI,HCT-15 colon,25 µM
same,GI50,CCRF-CEM leukemia,4.77 µM
same,TGI,CCRF-CEM leukemia,41.6 µM
same,GI50,UO-31 renal,5.28 µM
same,TGI,UO-31 renal,39.3 µM
same,GI50,HCT-116 colon,2.33 µM
same,TGI,HCT-116 colon,> 52 µM
same,GI50,OVCAR-3 ovarian,4.11 µM
same,TGI,OVCAR-3 ovarian,42.2 µM
same,GI50,SW-620 colon,8.06 µM
same,TGI,SW-620 colon,> 52 µM
same,GI50,MCF7 breast,1.54 µM
same,TGI,MCF7 breast,10.2 µM
same,GI50,EKVX NSCLC,10.5 µM
same,TGI,EKVX NSCLC,> 52 µM
same,GI50,SF-268 CNS,15.3 µM
same,TGI,SF-268 CNS,> 52 µM
same,GI50,MDA-MB-468 breast,2.3 µM
same,TGI,MDA-MB-468 breast,15.1 µM
same,GI50,RXF 393 renal,1.63 µM
same,TGI,RXF 393 renal,5.85 µM
same,GI50,HCC-2998 colon,2.27 µM
same,TGI,HCC-2998 colon,10.5 µM
same,GI50,HL-60(TB) leukemia,2.01 µM
same,TGI,HL-60(TB) leukemia,> 52 µM
same,GI50,NCI-H226 lung,3.52 µM
same,TGI,NCI-H226 lung,29.8 µM
same,GI50,OVCAR-5 ovarian,11.4 µM
same,TGI,OVCAR-5 ovarian,> 52 µM
same,GI50,SK-MEL-28 melanoma,8.47 µM
same,TGI,SK-MEL-28 melanoma,31.5 µM
same,GI50,SK-OV-3 ovarian,7.82 µM
same,TGI,SK-OV-3 ovarian,51.5 µM
same,GI50,NCI-H460 lung,1.65 µM
same,TGI,NCI-H460 lung,13.1 µM
same,GI50,K-562 leukemia,2.61 µM
same,TGI,K-562 leukemia,> 52 µM
same,GI50,NCI-H23 lung,7.5 µM
same,TGI,NCI-H23 lung,24.5 µM
same,GI50,OVCAR-4 ovarian,8.79 µM
same,TGI,OVCAR-4 ovarian,> 52 µM
same,GI50,MOLT-4 leukemia,1.87 µM
same,TGI,MOLT-4 leukemia,> 52 µM
same,GI50,U251 CNS,6.76 µM
same,TGI,U251 CNS,36.4 µM
same,GI50,OVCAR-8 ovarian,11.7 µM
same,TGI,OVCAR-8 ovarian,48.9 µM
same,GI50,SF-539 CNS,2.99 µM
same,TGI,SF-539 CNS,14.8 µM
same,GI50,MDA-MB-435,11.2 µM
same,TGI,MDA-MB-435,45.5 µM
same,GI50,NCI/ADR-RES ovarian,13.7 µM
same,TGI,NCI/ADR-RES ovarian,> 52 µM
same,GI50,M14 melanoma,6.74 µM
same,TGI,M14 melanoma,15.8 µM
same,GI50,UACC-257 melanoma,10.5 µM
same,TGI,UACC-257 melanoma,42.1 µM
same,GI50,TK-10 renal,15.8 µM
same,TGI,TK-10 renal,> 52 µM
same,GI50,MDA-MB-231 breast,13.2 µM
same,TGI,MDA-MB-231 breast,> 52 µM
same,GI50,IGROV1 ovarian,6.52 µM
same,TGI,IGROV1 ovarian,> 52 µM
